Experimental findings from US8629143B2, “Potassium channel modulators” (AbbVie Inc., priority 2009, dated 2014) are described below.

The subject of assay [1] is Adult male Sprague-Dawley rats. In words: Spinal nerve ligation (SNL) model of neuropathic pain. It is filed as in vivo. As to conditions: rat SNL model (L5/L6 ligation), about 30 mg/kg, tactile allodynia. An excerpt:
Adult male Sprague-Dawley rats (250-300 g body weight, Charles River Laboratories, Portage, Mich.) were used. Animal handling and experimental protocols were approved by the Institutional Animal Care and Use Committee (IACUC) at Abbott Laboratories. For all surgical procedures, animals were maintained under isoflurane anesthesia (4-5% to induce, 1-3% to maintain), and the incision sites were sterilized using a 10% povidone-iodine solution prior to and after surgeries.
Tactile (mechanical) allodynia was measured using calibrated von Frey filaments (Stoelting, Wood Dale, Ill.) as described in Chaplan, S. R., F. W. Bach, J. M. Pogrel, J. M. Chung and T. L. Yaksh, 1994, Quantitative assessment of tactile allodynia in the rat paw, J. Neurosci. Methods, 53, 55. Rats were placed into inverted individual plastic containers (20×12.5×20 cm) on top of a suspended wire mesh grid, and acclimated to the test chambers for 20 minutes. The von Frey filaments were presented perpendicularly to the plantar surface of the selected hind paw, and then held in this position for approximately 8 sec with enough force to cause a slight bend in the filament. Positive responses included an abrupt withdrawal of the hind paw from the stimulus, or flinching behavior immediately following removal of the stimulus. A 50% withdrawal threshold was determined using an up-down procedure (Dixon, W. J., 1980, Efficient analysis of experimental observations, Ann. Rev. Pharmacol. Toxicol., 20, 441). […] Tactile allodynia thresholds were also assessed in several control groups, including naive, sham-operated, and saline infused animals as well as in the contralateral paws of nerve-injured rats. To evaluate the anti-nociceptive effects, animals were administered vehicle or test compound and tactile allodynia was assessed 30 minutes after i.p. administration.
A model of spinal nerve ligation-induced (SNL model) neuropathic pain as originally described by Kim and Chung (Kim, S. H. and J. M. Chung, 1992, Pain 50, 355) was used to test a compound of the present application The left L5 and L6 spinal nerves of the rat were isolated adjacent to the vertebral column and tightly ligated with a 5-0 silk suture distal to the DRG, and care taken to avoid injury of the L4 spinal nerve. The same procedure was performed on Sham rats, but without nerve ligation. All animals were allowed to recover for at least one week and not more than three weeks prior to assessment of tactile allodynia.

Assay [2] addresses T1, KCNQ 2/3 channels (HEK293 cells stably expressing human KCNQ2 and KCNQ3 subunits) (Homo sapiens, UniProt O43525+O43526).
T1 construct: expressed in transfected cells; host or cells: HEK293
The experiment in a line: KCNQ2/3 channel activation, thallium flux FLIPR assay with BTC-AM dye. It is filed as cell-based. The settings on record: for Emax: HEK293, maximum response relative to the response produced by 10 μM retigabine (set at 100%), read-out: Max. %; for EC50: HEK293 cells expressing human KCNQ2 and KCNQ3, thallium flux, FLIPR. The essentials: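 HEK293 cells stably expressing human KCNQ2/KCNQ3 were loaded with BTC-AM (3 μg/mL, 2 h, RT) and preincubated with compound for 4 min in pH 7.3 gluconate buffer containing 0.1 mM ouabain. Flux was triggered by 6 mM TlNO3/10 mM K2SO4 and read for 3 min; EC50 came from summed responses over basal, with maximum relative to 10 μM retigabine (100%).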

Molecules are shown by their SMILES. Where only a bound is given, the exact number is not on record here.

A word on the EC50: it is the concentration that produces a half-maximal response. The low end stands for a more potent agent, the high end for a less potent agent.

As for `O=C(Cc1ccccc1)Nn1nc(-c2ccc(Cl)cc2)c2ccccc2c1=O` [Example 91, N-[4-(4-chlorophenyl)-1-oxophthalazin-2(1H)-yl]-2-phenylacetamide], the “change in paw withdrawal latency versus vehicle” value in assay [1] is “statistically significant change”. For the same molecule, in assay [2], the Emax is 101% and the EC50 is 100 to 500 nM.
`Cc1ccc(-c2nn(NC(=O)C[C@@H]3C[C@@H]4C=C[C@H]3C4)c(=O)c3ccccc23)c(C)c1` [Example 159, 2-[(1S,2S,4S)-bicyclo[2.2.1]hept-5-en-2-yl]-N-[4-(2,4-dimethylphenyl)-1-oxophthalazin-2(1H)-yl]acetamide]: in assay [2], the Emax turned out to be 156% and the EC50 fell in the range of 100 to 500 nM.
The like results for `O=C(CC12CC3CC(CC(C3)C1)C2)Nn1nc(-c2ccc(C(F)(F)F)cc2)c2ccccc2c1=O` [Example 149, 2-(adamantan-1-yl)-N-{1-oxo-4-[4-(trifluoromethyl)phenyl]phthalazin-2(1H)-yl}acetamide] were, in that order, 133% and < 100 nM.
With `O=C(Cc1cc(F)cc(F)c1)Nn1nc(-c2ccccc2)c2cc(F)ccc2c1=O` [Example 35, 2-(3,5-difluorophenyl)-N-(6-fluoro-1-oxo-4-phenylphthalazin-2(1H)-yl)acetamide], in assay [2], the Emax was determined as 192% and the EC50 lay within 100 to 500 nM.
Regarding `O=C(Cc1ccc(Cl)cc1)Nn1nc(-c2ccccc2)c2ccsc2c1=O` [Example 31, 2-(4-chlorophenyl)-N-(7-oxo-4-phenylthieno[2,3-d]pyridazin-6(7H)-yl)acetamide], in assay [2], the Emax came out at 30% and the EC50 was in the range of 1000 to 10000 nM.
`O=C(Cc1ccc(Cl)cc1)Nn1nc(-c2ccccc2)c2c(c1=O)CCCC2` [Example 187, 2-(4-chlorophenyl)-N-(1-oxo-4-phenyl-5,6,7,8-tetrahydrophthalazin-2(1H)-yl)acetamide]: in assay [2], the Emax amounted to 123% and the EC50 fell in the range of 100 to 500 nM.
For `O=C(Cc1ccc(Cl)cc1)Nn1nc(-c2ccccc2)c2ccccc2c1=O` [Example 4, 2-(4-chlorophenyl)-N-(1-oxo-4-phenylphthalazin-2(1H)-yl)acetamide], in assay [2], the Emax was 157% and the EC50 fell in the range of 100 to 500 nM.
With `O=C(Cc1ccc(Cl)c(F)c1)Nn1nc(C(F)(F)F)c2ccccc2c1=O` [Example 59, 2-(4-chloro-3-fluorophenyl)-N-[1-oxo-4-(trifluoromethyl)phthalazin-2(1H)-yl]acetamide], in assay [2], the Emax was 90% and the EC50 fell in the range of 1000 to 10000 nM.
Take `O=C(Cc1cc(F)cc(F)c1)Nn1nc(-c2ccccc2)c2ccsc2c1=O` [Example 33, 2-(3,5-difluorophenyl)-N-(7-oxo-4-phenylthieno[2,3-d]pyridazin-6(7H)-yl)acetamide]: in assay [2], the Emax came out at 140% and the EC50 was in the range of 1000 to 10000 nM.
Turning to `COc1ccc(-c2nn(NC(=O)CC3CCC(C)CC3)c(=O)c3ccccc23)cc1` (stereo not shown) [Example 152, N-[4-(4-methoxyphenyl)-1-oxophthalazin-2(1H)-yl]-2-(4-methylcyclohexyl)acetamide], in assay [2], the Emax was 114% and the EC50 fell in the range of 100 to 500 nM.
Take `O=C(C[C@H]1C[C@@H]2CC[C@H]1C2)Nn1nc(C2CCC2)c2ccccc2c1=O` (racemic) [Example 68, (±)-2-(exo-bicyclo[2.2.1]heptan-2-yl)-N-(4-cyclobutyl-1-oxophthalazin-2(1H)-yl)acetamide]: in assay [2], the Emax was 164% and the EC50 is < 100 nM.
Take `O=C(Cc1cccc(C(F)(F)F)c1)Nn1nc(-c2ccc(Cl)cc2)c2ccccc2c1=O` [Example 100, N-[4-(4-chlorophenyl)-1-oxophthalazin-2(1H)-yl]-2-[3-(trifluoromethyl)phenyl]acetamide]: in assay [2], the Emax stood at 79% and the half-maximal effective concentration (EC50) is 100 to 500 nM.
Consider `O=C(CSC12CC3CC(CC(C3)C1)C2)Nn1nc(-c2ccccc2)c2ccccc2c1=O` [Example 193, 2-(adamantan-1-ylthio)-N-(1-oxo-4-phenylphthalazin-2(1H)-yl)acetamide], for which, in assay [2], the Emax amounted to 161% and the EC50 was in the range of 100 to 500 nM.
As to `Cc1ccc(-c2nn(NC(=O)C[C@@H]3CC[C@H]4C[C@@H]3C4(C)C)c(=O)c3ccccc23)cc1` [Example 137, 2-[(1S,2S,5S)-6,6-dimethylbicyclo[3.1.1]hept-2-yl]-N-[4-(4-methylphenyl)-1-oxophthalazin-2(1H)-yl]acetamide], in assay [2], the Emax is 95% and the EC50 is 100 to 500 nM.
Regarding `CSCC(=O)Nn1nc(C(F)(F)F)c2ccccc2c1=O` [Example 191, 2-(methylthio)-N-[1-oxo-4-(trifluoromethyl)phthalazin-2(1H)-yl]acetamide], in assay [2], the Emax is 25% and the EC50 was > 10000 nM.
Take `O=C(Cc1ccc(Cl)cc1)Nn1nc(Cl)c2ccccc2c1=O` [Example 21, N-(4-chloro-1-oxophthalazin-2(1H)-yl)-2-(4-chlorophenyl)acetamide]: in assay [2], the Emax came to 82% and the EC50 was in the range of 1000 to 10000 nM.
As to `O=C(Cc1ccc(Cl)cc1)Nn1nc(-c2ccc(F)cc2)c2ccccc2c1=O` [Example 132, 2-(4-chlorophenyl)-N-[4-(4-fluorophenyl)-1-oxophthalazin-2(1H)-yl]acetamide], in assay [2], the Emax was 123% and the EC50 was 100 to 500 nM.
Regarding `Cc1ccc(-c2nn(NC(=O)Cc3ccc(Cl)cc3)c(=O)c3ccccc23)cc1C` [Example 165, 2-(4-chlorophenyl)-N-[4-(3,4-dimethylphenyl)-1-oxophthalazin-2(1H)-yl]acetamide], in assay [2], the Emax was found to be 112% and the EC50 is 100 to 500 nM.
For the molecule `O=C(Cc1ccc(Cl)cc1)Nn1nc(C2CCC2)c2ccccc2c1=O` [Example 70, 2-(4-chlorophenyl)-N-(4-cyclobutyl-1-oxophthalazin-2(1H)-yl)acetamide], in assay [2], the Emax amounted to 124% and the EC50 lay in the range of 100 to 500 nM.
The corresponding values for `O=C(Cc1ccc(Cl)s1)Nn1nc(-c2ccc(Cl)cc2)c2ccccc2c1=O` [Example 112, N-[4-(4-chlorophenyl)-1-oxophthalazin-2(1H)-yl]-2-(5-chloro-2-thienyl)acetamide] are 92% and 100 to 500 nM.
Turning to `O=C(C[C@H]1C[C@@H]2CC[C@H]1C2)Nn1nc(-c2ccc(F)cc2F)c2ccccc2c1=O` (racemic) [Example 134, (±)-2-(exo-bicyclo[2.2.1]hept-2-yl)-N-[4-(2,4-difluorophenyl)-1-oxophthalazin-2(1H)-yl]acetamide], in assay [2], the Emax was found to be 192% and the EC50 was < 100 nM.
The corresponding values for `O=C(Cc1cc(F)cc(F)c1)Nn1nc(C(F)(F)F)c2ccccc2c1=O` [Example 11, 2-(3,5-difluorophenyl)-N-[1-oxo-4-(trifluoromethyl)phthalazin-2(1H)-yl]acetamide] are 77% and 100 to 500 nM.
Turning to `COC(=O)c1ccc(-c2nn(NC(=O)Cc3ccc(Cl)cc3)c(=O)c3ccccc23)cc1` [Example 80, methyl 4-(3-{[(4-chlorophenyl)acetyl]amino}-4-oxo-3,4-dihydrophthalazin-1-yl)benzoate], in assay [2], the Emax amounted to 80% and the EC50 was in the range of 100 to 500 nM.
With `O=C(CC1CCC1)Nn1nc(C(F)(F)F)c2ccccc2c1=O` [Example 45, 2-cyclobutyl-N-[1-oxo-4-(trifluoromethyl)phthalazin-2(1H)-yl]acetamide], in assay [2], the Emax stood at 84% and the EC50 is 1000 to 10000 nM.
`O=C(CC1(C(F)(F)F)CCCC1)Nn1nc(-c2ccc(Cl)cc2)c2ccccc2c1=O` [Example 87, N-[4-(4-chlorophenyl)-1-oxophthalazin-2(1H)-yl]-2-[1-(trifluoromethyl)cyclopentyl]acetamide]: in assay [2], the Emax worked out at 104% and the EC50 lay within 500 to 1000 nM.
Consider `O=C(Cc1ccc2ccccc2c1)Nn1nc(-c2ccc(Cl)cc2)c2ccccc2c1=O` [Example 121, N-[4-(4-chlorophenyl)-1-oxophthalazin-2(1H)-yl]-2-(2-naphthyl)acetamide], for which, in assay [2], the Emax was found to be 201% and the EC50 was 1000 to 10000 nM.
As for `CC(C)c1nn(NC(=O)CC23CC4CC(CC(O)(C4)C2)C3)c(=O)c2ccccc12` [Example 61, 2-(3-hydroxyadamantan-1-yl)-N-(4-isopropyl-1-oxophthalazin-2(1H)-yl)acetamide], in assay [2], the Emax is 26% and the EC50 was > 10000 nM.
